These results are taken from ChEMBL document CHEMBL5665440, “ASAP - In vitro liver microsomal stability” (2024).

The nature of data set [1]: Human liver microsomal stability of compound in microsomal protein, PBS buffer pH 7.4, NADPH, glucose-6-phosphate and glucose-6-phosphate dehydrogenase media. Aliquotes were taken at 5 time points and after stopping the reaction, supernatants were analyzed using HPLC coupled with a tandem mass spectrometer. The elimination constant, half-life, and intrinsic clearance are determined as results using linear regression analysis. In kind it is ADME, microsomes, Microsome. Particulars: for half-life / microsomal CLint: liver microsomes.

A short description of data set [2]: Mouse liver microsomal stability of compound in microsomal protein, PBS buffer pH 7.4, NADPH, glucose-6-phosphate and glucose-6-phosphate dehydrogenase media. Aliquotes were taken at 5 time points and after stopping the reaction, supernatants were analyzed using HPLC coupled with a tandem mass spectrometer. The elimination constant, half-life, and intrinsic clearance are determined as results using linear regression analysis. Particulars: for half-life / microsomal CLint: liver microsomes; for Remaining / Remaining (without cofactor): microsomes. In kind it is ADME, microsomes, Microsome. In general terms: Liver microsomes are a subcellular fraction often used to study metabolism.

Several values for one entry are separate records, joined by “and”; a condition that tells them apart may be missing. Identical values can stand only once.
Wherever Remaining (without cofactor) is given: time not given here.
Wherever Remaining is given: time not given here.

For orientation: half-life means the time in which the quantity being followed falls by half. A lower half-life goes with fast loss. For orientation: microsomal CLint means a measure of how fast metabolising enzymes remove a compound, apart from limits set by blood flow. Higher therefore signals faster metabolism. Take `CC(C)NC(=O)[C@H](Nc1ccc2c(c1)CNC2)c1cc(Cl)cc2[nH]c(-c3ccccc3)nc12`: in data set [1] (microsomes), the CLint is 23.218 µL/min/mg and < 10 µL/min/mg; the Remaining was 67.537% and 102.526%; the “Remaining (without cofactor)” value is 101.395% and 117.42%; the T1/2 was 71.937 min and > 173.3 min. Also, in data set [2], the half-life is 151 min, the microsomal CLint is 11 µL/min/mg, the Remaining was 84% and the “Remaining (without cofactor)” value was 98.417%.
As to `CSc1cc2c(cc1NC(=O)c1cc(F)cc3[nH]ncc13)CNC2`, in data set [1], the half-life was > 173 min and the microsomal CLint was < 10 µL/min/mg. In data set [1] (microsomes), the Remaining amounted to 88.673% and the “Remaining (without cofactor)” value worked out at 103.344%. In data set [2], the half-life came to 12.7 min, the microsomal CLint was 131 µL/min/mg, the Remaining came to 11.381% and the “Remaining (without cofactor)” value stood at 93.133%.
In the case of `CNC(=O)c1cc(Br)cc([C@H](Nc2ccc3c(c2)CNC3)C(=O)NCC(F)F)c1`, in data set [1], the half-life was > 173 min and the microsomal CLint is < 10 µL/min/mg. In addition, in data set [1] (microsomes), the Remaining is 96.629% and the “Remaining (without cofactor)” value is reported as 106.229%. In data set [2], the half-life is > 173 min, the microsomal CLint was < 10 µL/min/mg, the Remaining was 92.112% and the “Remaining (without cofactor)” value was 95.032%.
In the case of `Nc1ccncc1-c1cc(F)cc(C(=O)Nc2ccc3c(c2)CNC3)c1`, in data set [1], the half-life is > 173 min and the microsomal CLint is < 10 µL/min/mg. Besides, in data set [1] (microsomes), the Remaining is recorded as 84.663% and the “Remaining (without cofactor)” value is on record as 102.026%. Also, in data set [2], the half-life is > 173 min, the microsomal CLint was < 10 µL/min/mg, the Remaining is on record as 87.356% and the “Remaining (without cofactor)” value was found to be 106.991%.
